Test results as given in ChEMBL document CHEMBL3244027, “Syntheses, analgetic activity, and physical dependence capacity of 5-phenyl-6,7-benzomorphan derivatives” (J Med Chem, 1979).
Active and inactive are the calls of the source. No cut-off for these calls is given here.

Legend:
Mus musculus [1] = test: Analgetic activity against CF-1 mouse assessed as increase in reaction time at 160 mg/kg, sc by heat stimulus induced tail flick response assay; format: functional, organism-based; design: dose 160 mg/kg
Mus musculus [2] = test: Analgetic activity in sc dosed CF1S mouse assessed as writhing by phenylquinone writhing test; format: functional; conditions: Mus musculus, CF1S, sc; read-out: ED50
Mus musculus [3] = test: Analgetic activity against CF-1 mouse assessed as increase in reaction time at 80 mg/kg, po by heat stimulus induced tail flick response assay; format: functional, organism-based; design: dose 80 mg/kg
Mus musculus [4] = organism: Mus musculus; test: Analgetic activity in naloxone challenged mouse assessed as frequency pretreated for 2 day by mouse jumping test; format: functional, organism-based
Mus musculus [5] = test: Analgetic activity against CF-1 mouse assessed as increase in reaction time at 160 mg/kg, po by heat stimulus induced tail flick response assay; format: functional, organism-based; design: dose 160 mg/kg
Mus musculus [6] = test: Analgetic activity in po dosed CF1S mouse assessed as writhing by phenylquinone writhing test; format: functional; conditions: Mus musculus, CF1S, po; read-out: ED50
Mus musculus [7] = test: Analgetic activity against CF-1 mouse assessed as increase in reaction time at 40 mg/kg, sc by heat stimulus induced tail flick response assay; format: functional, organism-based; design: dose 40 mg/kg
Mus musculus [8] = test: Analgetic activity against CF-1 mouse assessed as increase in reaction time at 20 mg/kg, sc by heat stimulus induced tail flick response assay; format: functional, organism-based; design: dose 20 mg/kg
Mus musculus [9] = test: Analgetic activity against CF-1 mouse assessed as increase in reaction time at 80 mg/kg, sc by heat stimulus induced tail flick response assay; format: functional, organism-based; design: dose 80 mg/kg
Mus musculus [10] = test: Analgetic activity against CF-1 mouse assessed as increase in reaction time at 320 mg/kg, po by heat stimulus induced tail flick response assay; format: functional, organism-based; design: dose 320 mg/kg
Mus musculus [11] = test: Analgetic activity against CF-1 mouse assessed as increase in reaction time at 320 mg/kg, sc by heat stimulus induced tail flick response assay; format: functional, organism-based; design: dose 320 mg/kg

Br.CC1=C(c2ccccc2)CCN(C)C1Cc1ccccc1 (centres undefined)
Activity (Mus musculus [1]): Active | ED50 (Mus musculus [2]): 45 mg/kg

Oc1ccc2c(c1)C1(c3ccccc3)CCN(CCc3ccccc3)C(C2)C1 (centres undefined)
Activity (Mus musculus [3]): Active | Activity (Mus musculus [4]): Active

Oc1ccc2c(c1)C1(c3ccccc3)CCN(CCCc3ccccc3)C(C2)C1 (racemic)
Activity (Mus musculus [5]): Active | ED50 (Mus musculus [6]): > 100 mg/kg

CC1C2Cc3ccc(O)cc3C1(c1ccccc1)CCN2CC1CCC1 (stereo in doubt; 219)
Activity (Mus musculus [4]): inactive

CN1CCC2(c3ccc(Cl)cc3)CC1Cc1ccc(O)cc12 (racemic)
Activity (Mus musculus [7]): Active

CC1C2Cc3ccc(O)cc3C1(c1ccccc1)CCN2CC(c1ccccc1)c1ccccc1 (centres undefined)
Activity (Mus musculus [5]): inactive

CCC1C2Cc3ccc(O)cc3C1(c1ccccc1)CCN2C (racemic)
Activity (Mus musculus [8]): Active

Oc1ccc2c(c1)C1(c3ccccc3)CCN(C/C=C/Cl)C(C2)C1 (racemic)
ED50 (Mus musculus [2]): > 100 mg/kg | Activity (Mus musculus [4]): inactive

c1ccc(CCN2CCC3(c4ccccc4)CC2Cc2ccccc23)cc1 (racemic)
Activity (Mus musculus [5]): Active

CC1C2Cc3ccc(O)cc3C1(c1ccccc1)CCN2CCC(=O)c1ccccc1 (centres undefined)
Activity (Mus musculus [5]): Active

COc1cc(CC2C=C(c3ccccc3)CCN2C)cc(OC)c1OC (centres undefined)
Activity (Mus musculus [3]): Active

Cc1ccc(S(=O)(=O)Oc2ccc3c(c2)C2(c4ccccc4)CCN(C)C(C3)C2)cc1 (racemic)
Activity (Mus musculus [9]): inactive

C[C@@H]1C2Cc3ccc(O)cc3C1(c1ccccc1)CCN2C (mixture of isomers)
Activity (Mus musculus [1]): Active

CC1C2Cc3ccc(O)cc3C1(c1ccccc1)CCN2CCO (racemic)
Activity (Mus musculus [1]): inactive | Activity (Mus musculus [10]): inactive

CC1=C(c2ccccc2)CCN(C)C1Cc1ccc(O)cc1 (centres undefined)
Activity (Mus musculus [1]): Active | ED50 (Mus musculus [2]): 5 mg/kg | Activity (Mus musculus [4]): inactive

C=C(Br)CN1CCC2(c3ccccc3)c3cc(O)ccc3CC1C2C.Cl (centres undefined)
Activity (Mus musculus [7]): inactive | ED50 (Mus musculus [2]): > 100 mg/kg | Activity (Mus musculus [4]): inactive

Cl.Oc1ccc2c(c1)C1(c3ccc(Cl)cc3)CCN(CCc3ccccc3)C(C2)C1 (racemic)
Activity (Mus musculus [3]): inactive | ED50 (Mus musculus [2]): > 100 mg/kg

c1ccc(C23CCNC(Cc4ccccc42)C3)cc1 (racemic)
Activity (Mus musculus [9]): Active

CN1CCC(c2ccccc2)=CC1Cc1ccc(F)cc1 (centres undefined)
Activity (Mus musculus [9]): Active

CCC1=C(c2ccccc2)CCN(C)C1Cc1ccc(O)cc1 (centres undefined)
Activity (Mus musculus [9]): Active | Activity (Mus musculus [4]): inactive

CCOC(=O)C(C)N1CCC2(c3ccccc3)c3cc(O)ccc3CC1C2C (centres undefined)
Activity (Mus musculus [11]): inactive | ED50 (Mus musculus [2]): > 100 mg/kg

C/C(Cl)=C/CN1CCC2(c3ccccc3)c3cc(O)ccc3CC1C2C (racemic)
Activity (Mus musculus [1]): inactive | ED50 (Mus musculus [2]): > 100 mg/kg

COc1ccc2c(c1)C1(c3ccccc3)CCN(CC=C(C)C)C(C2)C1C (centres undefined)
Activity (Mus musculus [11]): inactive | ED50 (Mus musculus [2]): > 100 mg/kg

CN1CCC2(c3ccccc3)CC1Cc1cc(O)c(O)c(O)c12 (racemic)
Activity (Mus musculus [5]): inactive

CN1CCC2(c3ccccc3)CC1Cc1ccc(O)cc12 (racemic)
Activity (Mus musculus [8]): Active

CC1C2Cc3ccccc3C1(c1ccccc1)CCN2C (racemic)
Activity (Mus musculus [7]): Active | Activity (Mus musculus [3]): Active

CN(C)C(=S)Oc1ccc2c(c1)C1(c3ccccc3)CCN(C)C(C2)C1 (racemic)
Activity (Mus musculus [7]): inactive | Activity (Mus musculus [10]): inactive

Br.CCN1CCC2(c3ccccc3)CC1Cc1ccccc12 (racemic)
Activity (Mus musculus [11]): inactive | ED50 (Mus musculus [2]): 16 mg/kg

CCOC(=O)CCN1CCC2(c3ccccc3)CC1Cc1ccc(O)cc12 (racemic)
Activity (Mus musculus [11]): inactive | ED50 (Mus musculus [2]): 78 mg/kg | ED50 (Mus musculus [6]): > 100 mg/kg

Oc1ccc2c(c1)C1(c3ccc(Cl)cc3)CCNC(C2)C1 (racemic)
Activity (Mus musculus [11]): inactive

O=[N+]([O-])c1ccc(CCN2CCC3(c4ccccc4)CC2Cc2ccc(O)cc23)cc1 (racemic)
Activity (Mus musculus [11]): inactive

CC1C2Cc3ccc(O)cc3C1(c1ccccc1)CCN2Cc1ccco1 (centres undefined)
Activity (Mus musculus [11]): inactive

CN1CCC(c2ccccc2)=CC1Cc1ccc(O)cc1 (centres undefined)
Activity (Mus musculus [8]): Active | ED50 (Mus musculus [2]): 1.5 mg/kg | ED50 (Mus musculus [6]): 27 mg/kg | Activity (Mus musculus [4]): inactive

C#CCN1CCC2(c3ccccc3)c3cc(O)ccc3CC1C2C (centres undefined)
Activity (Mus musculus [4]): inactive

CN1CCC2(c3ccc(Cl)cc3)CC1Cc1ccccc12 (racemic)
Activity (Mus musculus [9]): Active | Activity (Mus musculus [5]): Active

COc1ccc2c(c1)C1(c3ccccc3)CCNC(C2)C1.Cl (centres undefined)
Activity (Mus musculus [11]): inactive | ED50 (Mus musculus [2]): 100 mg/kg

CN1CCC2(c3ccccc3)CC1Cc1cc(O)c(O)cc12 (racemic)
Activity (Mus musculus [11]): inactive

CC1C2Cc3ccc(O)cc3C1(c1ccccc1)CCN2CCO (centres undefined)
Activity (Mus musculus [9]): inactive

Br.CN1CCC(c2ccccc2)=CC1Cc1ccccc1 (centres undefined)
Activity (Mus musculus [7]): Active | ED50 (Mus musculus [2]): 6.6 mg/kg | ED50 (Mus musculus [6]): 37 mg/kg | Activity (Mus musculus [4]): inactive

Oc1ccc2c(c1)C1(c3ccccc3)CCNC(C2)C1 (racemic)
Activity (Mus musculus [11]): inactive | Activity (Mus musculus [5]): inactive

C/C(Cl)=C\CN1CCC2(c3ccccc3)c3cc(O)ccc3CC1C2C (centres undefined)
Activity (Mus musculus [9]): inactive | ED50 (Mus musculus [2]): > 100 mg/kg

CCCN1CCC2(c3ccccc3)c3cc(O)ccc3CC1C2C (stereo in doubt; 173)
Activity (Mus musculus [11]): inactive

CC(C)=CCN1CCC2(c3ccccc3)c3cc(O)ccc3CC1C2C (stereo in doubt; 207)
Activity (Mus musculus [4]): inactive

CC1C2Cc3ccc(O)cc3C1(c1ccccc1)CCN2 (stereo in doubt; 110)
Activity (Mus musculus [11]): inactive | Activity (Mus musculus [10]): inactive

Oc1ccc2c(c1)C1(c3ccccc3)CCN(CCc3ccccc3)C(C2)C1 (racemic)
Activity (Mus musculus [7]): Active

COc1ccc(CC2C=C(c3ccccc3)CCN2C)cc1OC (centres undefined)
Activity (Mus musculus [7]): Active

C[C@@H]1C2Cc3ccc(O)cc3C1(c1ccccc1)CCN2CCC(C)(C)O (some centres undefined)
Activity (Mus musculus [11]): inactive | ED50 (Mus musculus [2]): 78 mg/kg

CC(C)CCN1CCC2(c3ccccc3)c3cc(O)ccc3CC1[C@H]2C (some centres undefined)
Activity (Mus musculus [5]): Active

CN1CCC2(c3ccccc3)CC1Cc1ccccc12 (stereo in doubt; 37)
Activity (Mus musculus [11]): inactive

CN(C)CCCN1CCC2(c3ccccc3)CC1Cc1ccc(O)cc12 (racemic)
Activity (Mus musculus [11]): inactive

CCOC(=O)CN1CCC2(c3ccccc3)c3cc(O)ccc3CC1C2C (centres undefined)
Activity (Mus musculus [11]): inactive

c1ccc(CCN2CCC3(c4ccccc4)CC2Cc2ccccc23)cc1 (centres undefined)
Activity (Mus musculus [1]): inactive

CC1C2Cc3ccc(O)cc3C1(c1ccccc1)CCN2CCc1ccc([N+](=O)[O-])cc1.Cl (centres undefined)
Activity (Mus musculus [11]): inactive | Activity (Mus musculus [10]): inactive | ED50 (Mus musculus [6]): > 100 mg/kg

COc1ccc(CC2C=C(c3ccccc3)CCN2C)cc1 (centres undefined)
Activity (Mus musculus [9]): Active | Activity (Mus musculus [4]): inactive

Br.CN1CCC2(c3ccccc3)CC1Cc1ccc(F)cc12 (racemic)
Activity (Mus musculus [9]): inactive | ED50 (Mus musculus [6]): 33 mg/kg

Oc1ccc2c(c1)C1(c3ccccc3)CCN(CC3CCC3)C(C2)C1 (stereo in doubt; 145)
Activity (Mus musculus [4]): inactive

CC(=O)Oc1ccc2c(c1)C1(c3ccccc3)CCN(C)C(C2)C1 (racemic)
Activity (Mus musculus [9]): inactive | ED50 (Mus musculus [2]): 9.4 mg/kg | Activity (Mus musculus [4]): inactive

CN1CCC2(c3ccccc3)CC1Cc1ccc(O)cc12 (stereo in doubt; 42)
Activity (Mus musculus [9]): inactive

c1ccc(C23CCNC(Cc4ccccc42)C3)cc1 (centres undefined)
Activity (Mus musculus [1]): Active

OCCN1CCC2(c3ccccc3)CC1Cc1ccc(O)cc12 (racemic)
Activity (Mus musculus [11]): inactive | ED50 (Mus musculus [2]): > 100 mg/kg

CC(=O)Oc1ccc2c(c1)C1(c3ccccc3)CCN(CC=C(C)C)C(C2)C1C (centres undefined)
Activity (Mus musculus [11]): inactive
